{"source": "patent US8158792B2", "about": "“Spiropiperidines for use as tryptase inhibitors” (Janssen Pharmaceutica N.V., priority 2007, dated 2012)", "key": {"human lung tryptase": {"target": "human lung tryptase", "test": "β-Tryptase In-Vitro Enzyme Assay", "assay_type": "biochemical", "settings": "human lung tryptase 1 nM, substrate H-D-HHT-Ala-Arg-pNa 500 μM, pH 7.4, room temperature", "procedure": "The β-tryptase assay was conducted with human lung tryptase (Cortex Biochem #CP3033) in an aqueous buffer (10 mM Tris, 10 mM Hepes, 150 mM NaCl, 0.1% PEG 8000, pH 7.4) using the chromogenic substrate H-D-HHT-Ala-Arg-pNa. […] Percent inhibition was calculated by comparing the initial reaction velocity of samples without inhibitor to those with inhibitor. The initial reaction velocities were analyzed using Microsoft Excel."}, "[1]": {"test_system": "guinea pig model of allergic asthma", "test": "Guinea Pig Efficacy Model (OVA allergic asthma)", "assay_type": "in vivo", "procedure": "The in vivo efficacy of Compound 3 was evaluated in a guinea pig model of allergic asthma. In this model, guinea pigs were sensitized and challenged with chicken egg ovalbumin (OVA) according to the protocol of N. Smith and F. J. Johnson (Clin. Exp. Allergy 2005, 35, 522-530), with some slight modifications. Guinea pigs were sensitized with 80 mg of OVA and 80 mg of aluminum hydroxide administered intraperitoneally on day 0, then challenged with 0.03% OVA aerosol for 10 minutes on day 14. In the experiment measuring early phase pulmonary response (EAR), guinea pigs were challenged for an additional three minutes with 0.06% OVA aerosol. EAR was measured as enhanced pause (PenH) using BUXCO whole body plethysmography for 10 minutes immediately following the OVA aerosol challenge. The animals were then euthanized and assessed for bronchoalveolar lavage (BAL) immune cell counts 24 hours after aerosol challenge on day 15. Either Compound 3 in doses of 3, 10, and/or 30 mg/kg or vehicle were administered subcutaneously, 1-2 hours before and 4-6 hours after OVA aerosol challenge."}, "[2]": {"test_system": "antigen-induced allergic sheep", "test": "Sheep Efficacy Model (antigen-induced allergic sheep asthma model)", "assay_type": "in vivo", "settings": "30 mg/kg BID oral gavage, two sheep", "procedure": "The in vivo efficacy of Compound 3 was evaluated in antigen-induced allergic sheep, which is a well-characterized asthma model (Abraham, W. M. Pulmonary Pharmacol. 1989, 2, 33-40). Compound 3 was administered via oral gavage to two sheep previously shown to be allergic responders to inhaled Ascaris suum antigen (FIG. 1). The compound was given at a dose of 30 mg/kg, BID, on day 1, and again on day 2 at 2 h prior to antigen challenge and then 4 h after antigen challenge. Airway resistance (SRL) was monitored for 8 h post antigen challenge and airway hyper-reactivity to carbachol (PC400) was measured 24 h post antigen challenge."}, "mild asthmatics": {"test_system": "mild asthmatics", "settings": "nebulized dry powder, 16 mild asthmatics, compared with placebo, cited from earlier work"}, "[3]": {"settings": "3, 10 and 30 mg/kg subcutaneously, 24 hours after OVA aerosol challenge"}}, "note": "Structures can show the parent of a compound that is named as a salt.", "data": [{"smiles": "NCc1ccc2c(c1)C1(CCN(C(=O)c3ccc(C#Cc4ccccc4)o3)CC1)CO2", "note": "[Cpd 3, 1-(5-phenylethynyl-furan-2-yl)carbonyl-5′-aminomethyl-spiro[piperidine-4,3′-(2H)-benzo[b]furan]]", "values": [{"measurement": "IC50", "setting": "human lung tryptase", "value": 3.5, "unit": "nM"}, {"measurement": "reduction in BAL eosinophils", "setting": "[1]; 30 mg/kg subcutaneously, 24 hours after OVA aerosol challenge", "value": 66, "unit": "%"}, {"measurement": "reduction in EAR as measured with whole body plethysmography (in PenH)", "setting": "[1]; 30 mg/kg subcutaneously, relative to sensitized and challenged guinea pigs treated with vehicle", "value": "greater than 93%"}, {"measurement": "eosinophilic BAL cell counts", "setting": "[1]; [3]", "value": "dose-dependent reduction"}, {"measurement": "total BAL cell counts", "setting": "[1]; [3]", "value": "dose-dependent reduction"}, {"measurement": "acute early phase response (EP; 0-4 h) post antigen, specific airway resistance (SRL)", "setting": "[2]", "value": "did not effect a change"}, {"measurement": "increase in airway hyper-reactivity to carbachol (PC400) at 24 h", "setting": "[2]; 24 h post antigen challenge", "value": "completely blocked"}, {"measurement": "late response (LP; 4-8 h post antigen), specific airway resistance (SRL)", "setting": "[2]; inhaled Ascaris suum antigen challenge", "value": "completely blocked"}]}, {"smiles": "NC(=O)[C@@H]1CCCN1C(=O)[C@H](CCCN=C(N)N)NC(=O)c1ccc2ccccc2c1O", "note": "[APC-366]", "values": [{"measurement": "mean maximum decrease of forced expiratory volume in one second for late airway hyperresponsiveness", "setting": "mild asthmatics; ρ=0.007", "value": 21, "unit": "%"}, {"measurement": "improvement for the late airway response", "setting": "mild asthmatics; ρ=0.012", "value": 33, "unit": "%"}]}, {"smiles": "NCc1ccc2c(c1)C1(CCN(C(=O)c3ccc(C#Cc4ccccc4)o3)CC1)CO2", "note": "(as salt: salt) [Cpd 3, 1-(5-phenylethynyl-furan-2-yl)carbonyl-5′-aminomethyl-spiro[piperidine-4,3′-(2H)-benzo[b]furan]]", "values": [{"measurement": "melting point", "value": "179 to 181", "unit": "°C"}]}]}
